Tests used:
CRBN = CRBN (Homo sapiens, UniProt Q96SW2); assay: Surface plasmon resonance with immobilized His-tagged cereblon; conditions: SPR; average of at least 2 experiments; N.B - no binding observed
Description: With unprecedented access to novel analogues of ImiDs, the structure-activity relationships with respect to Cereblon binding and the degradation of Aiolos (IKZF3) and CK1αwe were explored. To assess binding of ImiD analogues to Cereblon directly, an SPR assay with His-tagged Cereblon immobilized was employed. Dose-response curves were measured for each analogue and Kd values calculated.
Surface Plasmon Resonance
The surface plasmon resonance (SPR) experiments were conducted on a S200 Biacore (GE Healthcare). His-tagged cereblon protein was immobilized on a carboxymethylated dextran surface with nitriloacetic acid (NTA), taking advantage of NTA/Ni2+ chelation. The prepared surface equilibrated overnight in running buffer (10 mM HEPES buffer @ pH 7.4, 150 mM NaCl, 0.4 mg/mL BSA, 0.005% P20, 2% DMSO).
All compounds were prepared in 100% DMSO stock plates with a top concentration of 5 mM in a 3× serial dilution. Compounds were transferred from the stock plate to the assay plate and diluted into running buffer containing no DMSO.
Data analysis was performed in S200 Bia-evaluation software (GE Healthcare). Blanks were subtracted and data was corrected for DMSO using a standard DMSO curve.

PARP = PARP cleavage immunoblot in BL cells; type: cell-based; conditions: 48 hours; A825 0.1 uM, JQ1 and OTX15 up to 10.0 μM; Ramos cells
Description: (§1) Cultured cells were collected in lysis buffer containing 40 mM HEPES (pH 7.4), 140 mM NaCl, 2.5 mM EDTA, 1% NP-40, 0.1% SDS and protease inhibitor cocktail. After 10 minutes of centrifugation (14000 rpm), supernatant was collected for protein concentration determination by BCA method and subjected for immunoblotting by standard protocol. Western blot results were visualized using Bio-Rad Clarity ECL Western Blotting Substrate on Bio-Rad ChemiDoc™ MP imaging system.
Lysates were collected and analyzed by immunoblot for PARP cleavage with actin as loading control.

caspase 3/7 = assay: Caspase 3/7-Glow assay in BL cell lines; type: cell-based; conditions: 24 hours, A825 0.1 μM, JQ1 1.0 μM, OTX015 1.0 μM
SLC19A1 = assay: RT-QPCR of SLC19A1 gene expression in NAMALWA cells; type: cell-based; conditions: A825 0.1 μM 24 h, washout, 24 hours post-treatment
Description: RNA extraction was performed with Aurum™ Total RNA Mini Kit (#732-6820) from Bio-Rad. First-strand cDNA from total RNA was synthesized with High-Capacity cDNA Reverse Transcription Kit (#4368813) from Life Technologies according to manufacturer's instruction. Quantitative PCR was performed using Bio-rad SsoAdvanced™ Universal SYBR® Green Supermix (#172-5271). The following primers were used: […]
Cells were re-seeded in fresh medium and incubated without any inhibitor for 0 hr, 6.0 hr, and 24.0 hr. In a parallel control experiment, cells were treated in the same manner, except DMSO was used in place of inhibitor. At each time point, RNA was extracted from the lysates, reverse-transcribed into cDNA, and quantified by QPCR with SLC19A1 specific primers. GAPDH was also quantified by QPCR as an internal control.

c-Myc = assay: Western blot analysis of c-Myc in BL cell lines; type: cell-based
Description: as §1
A separate set of cells were treated in the same manner, except that DMSO was used in place of the inhibitor. Following treatment, cell lysates were collected and analyzed by immunoblot for c-Myc and Actin.
Cells were re-seeded and incubated without inhibitor for 0 hr, 0.5 hr, 1.0 hr, 2.0 hr, 3.0 hr, 4.0 hr, and 6.0 hr. Cell lysates were then collected at the various time points and analyzed by immunoblot for c-Myc and Actin. In a parallel control experiment, NAMALWA cells were treated in the same manner, except DMSO was used in place of JQ1.
After treatment, the cells were either lysed (to evaluate the suppression of c-Myc by the inhibitors) or washed to remove the inhibitor, re-seeded, and incubated without inhibitor for 4.0 hours (to evaluate the reversibility of c-Myc suppression). Cell lysates were collected and analyzed by immunoblot for c-Myc and Actin.
Following treatment, cell lysates were collected and analyzed by immunoblot for BRD4, c-Myc and Actin.
Cells were re-seeded in fresh medium and incubated without any compound for 0 hr, 2.0 hr, 4.0 hr, 6.0 hr, and 24.0 hr. In a parallel control experiment, cells were treated in the same manner, except DMSO was used in place of inhibitor. Lysates were collected and analyzed by immunoblot for BRD4, c-Myc, and Actin.

[1] = tested on: BL cell lines (NAMALWA, Ramos, CA-46, Daudi); assay: Proliferation assay (CellTiter-Glo) in BL cell lines; type: cell-based
Description: To assess the effect of the inhibitors on proliferation, cells (50,000/100 μl) were seeded in 96-well tissue culture plates followed by addition of compound at the indicated concentration. After 72 hours, 100 μL per well of reconstituted CellTiter-Glo (CTG) reagent (#G7572 from Promega) was added and read on Cytation 3 imaging reader from BioTek. Relative cell growth was determined by comparing assay readings of treated cells with control DMSO treated cells.
Specifically, NAMALWA, Ramos, CA-46, and Daudi cell lines were seeded at 50,000 cells/100 μl in 96-well plates. […] Following treatment, the relative proliferation of the samples was determined by CTG assay 72 hours following treatment.
Cells were re-seeded in fresh medium and incubated without any compound for 0 hr, 24.0 hr, and 48.0 hr. In a parallel control experiment, cells were treated in the same manner, except DMSO was used in place of inhibitor. Following treatment, the relative proliferation of the samples was determined by CTG assay.
In a parallel control experiment, cells were treated in the same manner, except DMSO was used in place of inhibitor. Following treatment, the relative proliferation of the samples was determined by CTG assay.
In a parallel experiment, cells were treated in the same manner, except DMSO was used in place of pomalidomide.

Chain of CRBN (Q96SW2 whole entry): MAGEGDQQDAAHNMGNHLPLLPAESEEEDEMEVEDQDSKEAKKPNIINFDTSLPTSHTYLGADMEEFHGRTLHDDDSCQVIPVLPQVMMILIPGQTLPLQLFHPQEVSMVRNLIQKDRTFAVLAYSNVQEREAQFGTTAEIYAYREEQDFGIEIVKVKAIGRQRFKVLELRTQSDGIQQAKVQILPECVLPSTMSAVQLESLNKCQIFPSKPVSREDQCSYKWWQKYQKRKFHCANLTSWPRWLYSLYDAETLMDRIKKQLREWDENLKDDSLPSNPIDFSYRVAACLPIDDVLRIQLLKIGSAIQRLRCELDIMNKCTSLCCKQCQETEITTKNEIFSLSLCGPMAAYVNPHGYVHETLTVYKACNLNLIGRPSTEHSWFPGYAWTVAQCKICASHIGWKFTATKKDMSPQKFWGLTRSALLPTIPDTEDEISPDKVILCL

Structure (SMILES): CC(C)(C)c1ccc2c(c1)C(=O)N(C1CCC(=O)NC1=O)C2=O (centres unmarked) [Compound 11]
- Kd (CRBN): 221 ± 52 nM

Structure (SMILES): O=C1CCC(N2C(=O)c3cccc4cccc(c34)C2=O)C(=O)N1 (centres unmarked) [Compound 12]
- Kd (CRBN): 111 ± 6 nM

Structure (SMILES): O=C1CCC(N2C(=O)c3ccc([N+](=O)[O-])cc3C2=O)C(=O)N1 (centres unmarked) [Compound 16]
- Kd (CRBN): > 11000 nM

Structure (SMILES): Cc1sc2c(c1C)C(c1ccc(Cl)cc1)=N[C@@H](CC(=O)Nc1ccc(OCCOCCOCCOCCNc3cccc4c3C(=O)N(C3CCC(=O)NC3=O)C4=O)cc1)c1nnc(C)n1-2 (some centres unmarked) [Compound A825]
- apoptosis by PARP cleavage (PARP): prominent PARP cleavage
- caspase 3/7 activity (caspase 3/7): statistically significant increase in caspase activity
- SLC19A1 gene expression after compound removal (SLC19A1): greatly reduced compared to the control sample
- c-Myc protein level after compound removal (c-Myc; A825 0.1 μM 24 h, washout, 24 hours post-treatment, NAMALWA cells): well below the control sample
- c-Myc downregulation (immunoblot) (c-Myc; A825 100-1000 nM overnight, NAMALWA and Ramos cells): much more pronounced downregulation of c-Myc compared to JQ1 and OTX-15
- suppression of proliferation ([1]; 72 hours, all BL cell lines tested): more pronounced suppression of proliferation compared to JQ1 or OTX15
- anti-proliferation effect ([1]; A825 10 nM with 10.0 μM pomalidomide, 72 hours, all cell lines tested): prevented the anti-proliferation effect
- duration of proliferation suppression post-treatment ([1]; A825 0.1 μM 24 h, washout, NAMALWA cells): more than 48 hours

Reference: patent US11834460B2, “Imide-based modulators of proteolysis and associated methods of use” (YALE UNIVERSITY, priority 2018, dated 2023)
